Reference: patent publication US11746103B2, “ALK-5 inhibitors and uses thereof” (Sumitomo Pharma Oncology, Inc., priority 2020, dated 2023)

Key:
[1] = test system: p-SMAD2 (Ser465/Ser467) in A549 xenograft; assay: Longitudinal PK/PD analysis of p-SMAD2 in A549 xenograft mouse model (PD); assay type: in vivo; conditions: 75 mg/kg single oral dose; for inhibition at 75 mg/kg: Mus musculus, A549, 4 hours post drug administration, read-out: inhibition of p-SMAD2 compared to the vehicle group
Experimental: (§1) In this study, p-SMAD2 (Ser465/Ser467) and a housekeeping gene (GAPDH) were measured at six timepoints from zero (established using vehicle-treated animals) up to twenty-four hours post dose for a single drug dose of seventy-five milligrams per kilogram per subject (three subjects per dosing group).
(§2) For this study, xenografts were prepared and implanted in mice as follows. At five weeks of age, female athymic nude mice (purchased from Charles River) were injected with approximately 3.2 million A549 cells (ATCC, CCL-185). Cells were harvested and resuspended in plain RPMI media (no phenol red added) and Matrigel (Corning 356237) at a one-to-one ratio, and two hundred-microliters of the cell suspension were injected into the right hind flank of each mouse. Tumors were measured every three days by caliper, and as tumors reached an average of ninety millimeters cubed, mice were randomized in groups of three. Each of the test compounds (Ex-10 and Ex-11) was resuspended in 1-methyl-2-pyrrolidinone (Sigma, 494496) (10%) plus 20% Solutol (Sigma 42966) in water (90%). The drug suspensions were sonicated for fifteen minutes to generate a fine particle suspension before being given to the test subjects. Subjects were dosed (per oral gavage) with the suspension. A vehicle control group with three mice was used to establish the baseline and timepoint zero of phospho-SMAD-2 in the tumor xenograft. The test compounds were administered to the respective subject groups at seventy-five milligrams per kilogram. Samples were obtained post administration of test compounds at 20 minutes, one hour, two hours, four hours, and twenty-four hours. Tumors were harvested, snap frozen and stored at negative eighty degrees Celsius until further processing. Plasma was collected from all animals by collecting whole blood via cardiac puncture, followed by centrifugation in tubes containing EDTA (BD, microtainer tubes, 365974). A group of three mice receiving vehicle only served as the zero timepoint for both drug groups. The phospho-SMAD-2 levels were determined using the Bio-Plex Pro™ Phospho-Smad2 (Ser465/Ser467) Set (BioRad 171V50019M). The phospho-SMAD-2 levels were normalized to GAPDH (MILLIPLEX MAP GAPDH Total Magnetic Bead MAPmate™, Millipore 46-667MAG) levels from each sample. All analytes were analyzed in a multiplex fashion with the Bio-Plex Pro Cell Signaling Reagent Kit (BioRad 171304006M). Frozen tumor samples (fifteen to thirty milligrams) were lysed in 100 μl lysis buffer, processed in a bead mill tube, and centrifuged. The resulting lysate was used at 1:50 dilution for the assay according to the manufacturer's instructions. Bead suspension was analyzed using the Luminex system (MAGPIX).

[2] = Longitudinal PK/PD analysis in A549 xenograft mouse model (plasma and tumor PK); assay type: in vivo; conditions: 75 mg/kg single oral dose
Experimental: as §1, §2

ALK-5 = ALK-5 (Homo sapiens (Human), UniProt P36897); assay: LanthaScreen Eu Kinase Binding Assay, ALK-5; conditions: for IC50: read-out: Kinase Inhibition: ALK5 IC50
In short: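 TR-FRET binding assay: compound displaces an ATP-site-directed Alexa Fluor tracer from kinase detected by Eu-labelled anti-tag antibody, lowering FRET. 10-point, 3-fold serial dilutions, 60 min incubation at room temperature, read without development step. Dose-response curves fitted.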

[3] = test system: phospho-SMAD2 (Ser 465/467) in A549 xenograft; assay: A549 xenograft study, tumor phospho SMAD2; assay type: in vivo, mouse; conditions: for phospho SMAD2 levels in tumor (normalized to GAPDH): 10, 50, 75, 100 mg/Kg; for inhibition at 10 mg/kg / inhibition at 50 mg/kg / inhibition at 75 mg/kg / inhibition at 100 mg/kg: Mus musculus, A549, oral gavage, 3 hours after administration, read-out: Percent of p-SMAD2 inhibition compared to vehicle control
Source text: To test compounds for in vivo on-target activity (ALK5/TGF-βR1 inhibition), a study was completed using an A549 murine xenograft model. This model was utilized since an ALK5 inhibitor is expected to reduce the amount of the key TGF-β signaling molecule phosphoSMAD2 in the A549 xenograft cells. The TGF-β mediated phosphorylation in A549 cells takes place at amino acid residue four hundred and sixty-five and four hundred and sixty-seven (both are serine residues).
Eight-week old, female athymic nude mice (Charles River) were injected with approximately four million A549 cells (ATCC, CCL-185). The cells employed were harvested and resuspended in plain RPMI media (no phenol red added) and matrigel (Fisher Scientific) at a one to one ratio. Injection comprised a two-hundred microliter sample injected into the right hind flank of each mouse. Resulting tumors were measured every three days by caliper and as tumors reached an average of one hundred and thirty millimeters cubed, mice were randomized in groups of three.
All compounds were resuspended in 1-Methyl-2-pyrrolidinone (10%) plus 20% Solutol in water (90%). Galunisertib was included as a positive control and given at seventy-five milligram per kilogram to three mice. The drug suspensions were sonicated for fifteen minutes to generate a fine particle suspension before being administered to a subject. Mice were dosed (per oral gavage) at dose levels of one hundred mg/Kg, seventy-five mg/Kg, fifty mg/Kg and ten mg/Kg with three mice in each group. A vehicle control group with three mice was used to establish the baseline level of phospho SMAD2 in the tumor xenograft. Three hours after drug administration, tumors were harvested and stored at negative eighty degrees Celsius until further processing. The phospho SMAD2 levels were determined using the BioPlex Pro anti phospho-SMAD2 (Ser 465/467) beads from Biorad and this signal was normalized using GAPDH levels from each sample (Milliplex MAP GAPDH beads, Sigma/Millipore). Tumors were processed according to kit instructions and beads analyzed using the MagPix instrument by Luminex.

Sequence of ALK-5 (P36897 34-503): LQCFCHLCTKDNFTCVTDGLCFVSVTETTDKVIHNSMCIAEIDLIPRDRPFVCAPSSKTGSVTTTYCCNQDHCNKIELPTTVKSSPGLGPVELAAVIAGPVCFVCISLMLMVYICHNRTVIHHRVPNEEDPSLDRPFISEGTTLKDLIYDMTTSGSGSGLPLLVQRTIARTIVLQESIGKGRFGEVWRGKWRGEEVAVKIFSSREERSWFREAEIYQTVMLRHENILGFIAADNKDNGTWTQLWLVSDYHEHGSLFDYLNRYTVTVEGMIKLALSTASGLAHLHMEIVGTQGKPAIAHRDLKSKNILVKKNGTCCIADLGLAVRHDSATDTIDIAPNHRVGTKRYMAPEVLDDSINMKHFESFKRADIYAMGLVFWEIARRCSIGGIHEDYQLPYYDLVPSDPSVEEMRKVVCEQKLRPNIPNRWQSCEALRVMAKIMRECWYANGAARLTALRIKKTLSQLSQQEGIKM

Structure (SMILES) | p-SMAD2 levels at 24 hours post drug administration [1] | inhibition at 75 mg/kg [1] [%] | drug concentration in plasma and tumor over time [2] | drug in plasma and tumor at 24 hours post drug administration [2] | Kinase Selectivity: ALK2 IC50/ ALK5 IC50 (ALK-5) | IC50 (ALK-5) [nM] | phospho SMAD2 levels in tumor (normalized to GAPDH) [3] | inhibition at 10 mg/kg [3] [%] | inhibition at 50 mg/kg [3] [%] | inhibition at 75 mg/kg ([3]; 75 mg/Kg) [%] | inhibition at 100 mg/kg [3] [%] | time of maximum drug concentration in plasma and tumor [2] | observed level of p-SMAD2 as percent of vehicle-only group ([3]; 75 mg/Kg) [%]
Cc1cccc2c(Nc3ccnc(Nc4ccc(N5CCOCC5)cc4)n3)cnnc12 [EX-10, N4-(8-methylcinnolin-4-yl)-N2-(4-morpholino-phenyl)-pyrimidine-2,4-diamine] | rose back to baseline levels | 74.3 | spiked 20 minutes to 1-hour post drug administration and stayed high up to 4 hours post drug administration | cleared out of the system completely | (++) (10<ALK2/ALK5<100=[++]) | < 10 | reduced the phopho SMAD2 levels (p-SMAD2) in a dose dependent fashion | 33.5 | 78.3 | 74.8 | 84.8 | – | –
Cc1cccc2c(Nc3ccnc(Nc4cccc(N5CCOCC5)c4)n3)cnnc12 [EX-11, N4-(8-methylcinnolin-4-yl)-N2-(3-morpholinophenyl)pyrimidine-2,4-diamine] | rose back to baseline levels | 92.3 | – | cleared out of the system | (++) (10<ALK2/ALK5<100=[++]) | < 10 | reduced the phopho SMAD2 levels (p-SMAD2) in a dose dependent fashion | 32.6 | 87.6 | 92.5 | 90.1 | around 4 hours | 7.5
